Data as given in patent US20230295157A1, “3-(1H-IMIDAZOL-2-YL)-2,3,8,8A-TETRAHYDROINDOLIZIN-5(1H)-ONE DERIVATIVES USEFUL AS FACTOR XIA INHIBITORS” (JANSSEN PHARMACEUTICA NV, priority 2020, published 2023).
Like-named read-outs stand apart in the source and are kept apart here.

How the values were obtained:
Factor XIa = Factor XIa (Homo sapiens (Human), UniProt P03951); assay: Factor XIa inhibition assay (FLINT) utilizing a fluorophore-quencher pair peptide substrate; type: biochemical; details: 30 min preincubation, kinetic reads over 30 min, read-out: FXIa Kin Inh IC50
Factor XIa, sequence (P03951 388-625): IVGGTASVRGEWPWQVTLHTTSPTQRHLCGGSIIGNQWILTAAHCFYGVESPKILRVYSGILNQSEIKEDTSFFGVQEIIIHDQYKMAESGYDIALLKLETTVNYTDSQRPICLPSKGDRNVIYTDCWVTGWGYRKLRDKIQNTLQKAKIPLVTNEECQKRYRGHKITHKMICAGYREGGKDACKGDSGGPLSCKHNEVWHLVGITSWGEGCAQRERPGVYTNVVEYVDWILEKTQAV
Factor XIa, sequence (P03951 19-387 partner): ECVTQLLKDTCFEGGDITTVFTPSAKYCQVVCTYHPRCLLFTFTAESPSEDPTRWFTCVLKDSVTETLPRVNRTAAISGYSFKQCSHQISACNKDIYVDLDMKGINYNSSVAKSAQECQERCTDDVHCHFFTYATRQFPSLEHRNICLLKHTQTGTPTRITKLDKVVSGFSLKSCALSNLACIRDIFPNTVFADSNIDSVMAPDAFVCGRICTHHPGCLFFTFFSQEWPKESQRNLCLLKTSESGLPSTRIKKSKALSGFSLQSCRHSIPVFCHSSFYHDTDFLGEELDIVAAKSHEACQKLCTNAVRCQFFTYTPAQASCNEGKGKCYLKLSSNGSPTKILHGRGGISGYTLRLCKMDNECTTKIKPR
Outline: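 FXIa ([…]) preincubated 30 min with compound (11-point 3-fold dilution, top 100 nM, 2% DMSO), then 15 μM quenched FXI Arg146-based peptide added; Tris pH 7.5, CaCl2, BSA, CHAPS. Fluorescence 485/520 nm read kinetically every 5 min over 30 min at RT; IC50 by 4-parameter fit.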

human plasma kallikrein = human plasma kallikrein (Homo sapiens (Human), UniProt P03952); assay: Kallikrein inhibition assay (FLINT) utilizing a quenched AMC peptide substrate; type: biochemical; details: 30 min preincubation, kinetic reads over 30 min, Z-Gly-Pro-Arg-AMC substrate 50 μM; read-out: Kallikrein Kin Inh IC50
human plasma kallikrein, sequence (P03952 391-638): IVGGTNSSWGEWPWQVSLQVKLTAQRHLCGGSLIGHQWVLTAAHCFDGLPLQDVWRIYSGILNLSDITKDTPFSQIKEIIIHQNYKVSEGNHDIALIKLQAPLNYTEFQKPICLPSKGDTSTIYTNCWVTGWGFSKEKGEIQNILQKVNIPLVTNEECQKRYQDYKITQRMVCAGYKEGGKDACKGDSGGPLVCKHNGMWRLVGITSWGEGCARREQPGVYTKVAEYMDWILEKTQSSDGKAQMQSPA
human plasma kallikrein, sequence (P03952 20-390 partner): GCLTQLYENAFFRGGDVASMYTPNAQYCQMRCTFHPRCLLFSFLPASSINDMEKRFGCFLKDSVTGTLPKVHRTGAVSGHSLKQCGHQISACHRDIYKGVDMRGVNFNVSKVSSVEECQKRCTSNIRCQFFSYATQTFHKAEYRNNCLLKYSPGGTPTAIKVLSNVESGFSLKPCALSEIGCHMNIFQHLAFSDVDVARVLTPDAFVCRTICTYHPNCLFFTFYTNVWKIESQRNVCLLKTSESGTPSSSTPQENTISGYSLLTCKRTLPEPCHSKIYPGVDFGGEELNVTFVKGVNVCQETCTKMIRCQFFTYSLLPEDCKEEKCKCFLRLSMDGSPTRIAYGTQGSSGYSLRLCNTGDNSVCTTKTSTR
Outline: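 Enzyme (2 nM final) pre-incubated 30 min at room temperature with compound (11-point, 3-fold, top 1 μM, 2% DMSO), then 50 μM Z-Gly-Pro-Arg-AMC added in Tris pH 7.5 buffer. Kinetic fluorescence 340/440 nm every 5 min over 30 min; IC50 from 4-parameter logistic fit.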

[1] = 5Fam-KLTRAETV-K5Tamra substrate 15 μM
[2] = 5Fam-[…]-K5Tamra substrate 15 μM

| Structure (SMILES) | IC50 (Factor XIa; [1]) [nM] | IC50 (human plasma kallikrein) [nM] | IC50 (Factor XIa; [2]) [nM] |
| --- | --- | --- | --- |
| O=C1C=C(c2c(-n3cnnn3)ccc(Cl)c2F)C[C@H]2CC[C@@H](c3ncc(-c4ccnc(C[C@H](O)C(F)(F)F)c4F)[nH]3)N12 (single isomer, unassigned) [Example 143, (3S,8aR)-7-(3-chloro-2-fluoro-6-(1H-tetrazol-1-yl)phenyl)-3-(5-(3-fluoro-2-((*S)-3,3,3-trifluoro-2-hydroxypropyl)pyridin-4-yl)-1H-imidazol-2-yl)-2,3,8,8a-tetrahydroindolizin-5(1H)-one] | 2.4 | 33 | – |
| O=C(O)c1sc(-c2cnc([C@@H]3CC[C@@H]4CC(c5c(-n6cc(C(F)(F)F)nn6)ccc(Cl)c5F)=CC(=O)N43)[nH]2)cc1F (single isomer, unassigned) [Example 195, 5-(2-((3*S,8aR)-7-(3-chloro-2-fluoro-6-(4-(trifluoromethyl)-1H-1,2,3-triazol-1-yl)phenyl)-5-oxo-1,2,3,5,8,8a-hexahydroindolizin-3-yl)-1H-imidazol-yl)-3-fluorothiophene-2-carboxylic acid] | 0.5 | 22.1 | – |
| O=C1C=C(c2c(-n3cnnn3)ccc(Cl)c2F)CC2CC[C@@H](c3ncc(-c4cn[nH]c4Cl)[nH]3)N12 (stereo partly drawn) [Example 366, (3S)-3-(5-(5-chloro-1H-pyrazol-4-yl)-1H-imidazol-2-yl)-7-(3-chloro-2-fluoro-6-(1H-tetrazol-1-yl)phenyl)-2,3,8,8a-tetrahydroindolizin-5(1H)-one] | 1.4 | 19 | – |
| CC1CC2CC(c3c(-n4cnnn4)ccc(Cl)c3F)=CC(=O)N2C1c1ncc(-c2ccc(N)nc2F)[nH]1 (stereo not drawn) [Example 328, 3-(5-(6-Amino-2-fluoropyridin-3-yl)-1H-imidazol-2-yl)-7-(3-chloro-2-fluoro-6-(1H-tetrazol-1-yl)phenyl)-2-methyl-2,3,8,8a-tetrahydroindolizin-5(1H)-one] | 3.4 | 45.9 | – |
| COC(=O)Nc1ccc(-c2cnc([C@@H]3CC[C@@H]4CC(c5c(-n6cnnn6)ccc(Cl)c5F)=CC(=O)N43)[nH]2)nc1 [Example 316, Methyl (6-(2-((3S,8aR)-7-(3-chloro-2-fluoro-6-(1H-tetrazol-1-yl)phenyl)-5-oxo-1,2,3,5,8,8a-hexahydroindolizin-3-yl)-1H-imidazol-5-yl)pyridin-3-yl)carbamate] | 5 | 25.5 | – |
| COC(=O)Nc1ccccc1-c1cnc([C@@H]2CC[C@H]3CC(c4c(-n5cnnn5)ccc(Cl)c4F)=CC(=O)N32)[nH]1 (relative stereo) [Example 302, Methyl 2-(24(3S,8aS*)-7-(3-chloro-2-fluoro-6-(1H-tetrazol-1-yl)phenyl)-5-oxo-1,2,3,5,8,8a-hexahydroindolizin-3-yl)-1H-imidazol-4-yl)phenylcarbamate] | – | 29.1 | 10.4 |
| O=C(O)c1ccc(-c2c[nH]c(C3CCC4CC(c5cc(Cl)ccc5-n5cc(C(F)(F)F)nn5)=CC(=O)N43)n2)s1 (stereo not drawn) [Example 373, 5-(2-(7-(5-chloro-2-(4-(trifluoromethyl)-1H-1,2,3-triazol-1-yl)phenyl)-5-oxo-1,2,3,5,8,8a-hexahydroindolizin-3-yl)-1H-imidazol-4-yl)thiophene-2-carboxylic acid] | 0.7 | 39.6 | – |
| O=C1C=C(c2c(-n3cnnn3)ccc(Cl)c2F)C[C@H]2CC[C@@H](c3ncc(-c4ccnc(N5CC6(COC6)C5)c4F)[nH]3)N12 (single isomer, unassigned) [Example 108, (3S*,8aR)-7-(3-chloro-2-fluoro-6-(1H-tetrazol-1-yl)phenyl)-3-(5-(3-fluoro-2-(2-oxa-6-azaspiro[3.3]heptan-6-yl)pyridin-4-yl)-1H-imidazol-2-yl)-2,3,8,8a-tetrahydroindolizin-5(1H)-one] | – | 5.7 | 2.9 |
| O=C(O)c1nccc(-c2[nH]c([C@@H]3CC[C@@H]4CC(c5c(-n6cc(C(F)(F)F)nn6)ccc(Cl)c5F)=CC(=O)N43)nc2F)c1F [Example 34, 4-(2-((3S,8aR)-7-(3-Chloro-2-fluoro-6-(4-(trifluoromethyl)-1H-1,2,3-triazol-1-yl)phenyl)-5-oxo-1,2,3,5,8,8a-hexahydroindolizin-3-yl)-4-fluoro-1H-imidazol-5-yl)-3-fluoropicolinic acid] | 0.6 | 32.8 | – |
| O=C1C=C(c2cc(Cl)ccc2-n2cc(C(F)(F)F)nn2)C[C@H]2CC[C@@H](c3ncc(-c4ccc5[nH]c(=O)cnc5c4F)[nH]3)N12 (relative stereo) [Example 59, 6-(2-((3S*,8aR*)-7-(5-chloro-2-(4-(trifluoromethyl)-1H-1,2,3-triazol-1-yl)phenyl)-5-oxo-1,2,3,5,8,8a-hexahydroindolizin-3-yl)-1H-imidazol-5-yl)-5-fluoroquinoxalin-2(1H)-one] | – | 12 | 3.1 |
| [2H][C@]12CC[C@@H](c3ncc(-c4ccc(N)nc4F)[nH]3)N1C(=O)C=C(c1c(-n3cnnn3)ccc(Cl)c1F)C2 [Example 146, (3S,8aR)-3-[5-(6-amino-2-fluoro-3-pyridyl)-1H-imidazol-2-yl]-7-[3-chloro-2-fluoro-6-(tetrazol-1-yl)phenyl]-8a-deuterio-1,2,3,8-tetrahydroindolizin-5-one] | 0.5 | 7.3 | – |
| CC1(C)C[C@@H](c2ncc(-c3ccc(N)nc3Cl)[nH]2)N2C(=O)C=C(c3c(-n4cnnn4)ccc(Cl)c3F)C[C@H]21 (relative stereo) [Example 338, (3S,8aS)-3-(5-(6-Amino-2-chloropyridin-3-yl)-1H-imidazol-2-yl)-7-(3-chloro-2-fluoro-6-(1H-tetrazol-1-yl)phenyl)-1,1-dimethyl-2,3,8,8a-tetrahydroindolizin-5(1H)-one] | – | 8.4 | 1 |
| CC(=O)Nc1ccccc1-c1cnc([C@@H]2CC[C@H]3CC(c4c(-n5cnnn5)ccc(Cl)c4F)=CC(=O)N32)[nH]1 (relative stereo) [Example 306, N-(2-(24(3S,8aS*)-7-(3-Chloro-2-fluoro-6-(1H-tetrazol-1-yl)phenyl)-5-oxo-1,2,3,5,8,8a-hexahydroindolizin-3-yl)-1H-imidazol-4-yl)phenyl)acetamide] | – | 11.8 | 0.5 |

The next molecules have a lower IC50 (human plasma kallikrein) than those just listed; values first:

| IC50 (Factor XIa; [1]) [nM] | IC50 (human plasma kallikrein) [nM] | IC50 (Factor XIa; [2]) [nM] | Structure (SMILES) |
| --- | --- | --- | --- |
| 1 | 0.6 | – | NC(=O)c1cc(-c2cnc([C@@H]3CC[C@@H]4CC(c5c(-n6cnnn6)ccc(Cl)c5F)=CC(=O)N43)[nH]2)cs1 [Example 234, 4 (2-((3S,8aR)-7-(3-Chloro-2-fluoro-6-(1H-tetrazol-1-yl)phenyl)-5-oxo-1,2,3,5,8,8a-hexahydroindolizin-3-yl)-1H-imidazol-5-yl)thiophene-2-carboxamide] |
| 0.3 | 0.7 | – | NC(=O)c1cc(-c2nc([C@@H]3CCC4CC(c5c(-n6cnnn6)ccc(Cl)c5F)=CC(=O)N43)[nH]c2Cl)cs1 (stereo partly drawn) [Example 218, 4-(5-Chloro-2-((3S)-7-(3-chloro-2-fluoro-6-(1H-tetrazol-1-yl)phenyl)-5-oxo-1,2,3,5,8,8a-hexahydroindolizin-3-yl)-1H-imidazol-4-yl)thiophene-2-carboxamide] |
| 0.3 | 3.8 | – | Nc1ccc(-c2[nH]c([C@@H]3CC[C@@H]4CC(c5cc(Cl)ccc5-n5cnnn5)=CC(=O)N43)nc2F)c(F)n1 [Example 69, (3S,8aR)-3-(5-(6-amino-2-fluoropyridin-3-yl)-4-fluoro-1H-imidazol-2-yl)-7-(5-chloro-2-(1H-tetrazol-1-yl)phenyl)-2,3,8,8a-tetrahydroindolizin-5(1H)-one] |
| 5.6 | 1.5 | – | NC(=O)c1cccc(-c2cnc([C@@H]3CC[C@@H]4CC(c5c(-n6cnnn6)ccc(Cl)c5F)=CC(=O)N43)[nH]2)c1F [Example 237, 3-(2-((3S,8aR)-7-(3-Chloro-2-fluoro-6-(1H-tetrazol-1-yl)phenyl)-5-oxo-1,2,3,5,8,8a-hexahydroindolizin-3-yl)-1H-imidazol-5-yl)-2-fluorobenzamide] |
| 3.8 | 4.4 | – | O=C1C=C(c2c(-n3cnnn3)ccc(Cl)c2F)C[C@H]2CC[C@@H](c3nc(-c4cccc5[nH]ncc45)c[nH]3)N12 [Example 51, (3S,8aR)-3-(4-(1H-indazol-4-yl)-1H-imidazol-2-yl)-7-(3-chloro-2-fluoro-6-(1H-tetrazol-1-yl)phenyl)-2,3,8,8a-tetrahydroindolizin-5(1H)-one] |
| – | 0.7 | 0.2 | O=C(Nc1cnccc1-c1c[nH]c([C@@H]2CC[C@H]3CC(c4c(-n5cnnn5)ccc(Cl)c4F)=CC(=O)N32)n1)C1CC1 (relative stereo) [Example 250, N-(4-(24(3S,8aS*)-7-(3-choro-2-fluoro-6-(1H-tetrazol-1-yl)phenyl)-5-oxo-1,2,3,5,8,8a-hexahydroindolizin-3-yl)-1H-imidazol-4-yl)pyridin-3-yl)cyclopropanecarboxamide] |
| 0.4 | 1.1 | – | O=C1C=C(c2c(-n3cnnn3)ccc(Cl)c2F)C[C@H]2CC[C@H](c3nc(Cl)c(-c4ccnc(C5(O)CC5)c4)[nH]3)N12 [Example 178, (3R,8aR)-7-(3-chloro-2-fluoro-6-(1H-tetrazol-1-yl)phenyl)-3-(4-chloro-5-(2-(1-hydroxycyclopropyl)pyridin-4-yl)-1H-imidazol-2-yl)-2,3,8,8a-tetrahydroindolizin-5(1H)-one] |
| 0.9 | 2.4 | – | O=C(Nc1ccccc1-c1c[nH]c([C@@H]2CCC3CC(c4c(-n5cnnn5)ccc(Cl)c4F)=CC(=O)N32)n1)C1CCCC1 (stereo partly drawn) [Example 330] |
